# Like-named read-outs stand apart in the source and are kept apart here.
# Columns and labels:
# [1] = system: Trichophyton mentagrophytes; assay: MIC against T. mentagrophytes (NCCLS broth dilution); format: cell-based; conditions: for MIC: Trichophyton mentagrophytes, read-out: Minimum inhibitory concentration, T. mentagrophytes
# Text: (§1) To determine the antifungal activity of these compounds we screened for their minimum inhibitory concentrations (MIC) against the major dermatophytes that cause onychomycosis, T. rubrum and T. mentagrophytes, and against the yeasts and molds C. albicans, C. neoformans and A. fumigatus to test for their broad spectrum activity. The antifungal agent ciclopirox, currently in use for the topical treatment of onychomycosis, was used as a reference.
# (§2) All MIC testing against Trichophyton rubrum, Trichophyton mentagrophytes, Candida albicans, Cryptococcus neoformans and Aspergillus fumigatus were determined following the National Committee for Clinical Laboratory Standards (NCCLS) guidelines for antimicrobial testing of yeasts and filamentous fungi.^i,ii
# (§3) Two-fold serial dilutions of the test compounds were prepared in 96-well plates. […] Pfaller M A, Chaturvedi V, Espinel-Ingroff A, Ghannoum M A, Gosey L L, Odds F C, Rex J H, Rinaldi M G, Sheehan D J, Walsh T J, Warnock D W. NCCLS publication M27-A2—Reference Method for Broth Dilution Antifungal Susceptibility Testing of Yeasts; Approved Standard—Second Edition. […] Pfaller M A, Chaturvedi V, Espinel-Ingroff A, Ghannoum M A, Gosey L L, Odds F C, Rex J H, Rinaldi M G, Sheehan D J, Walsh T J, Warnock D W. NCCLS publication M38-A—Reference Method for Broth Dilution Antifungal Susceptibility Testing of Filamentous Fungi; Approved Standard.
# Candida albicans = assay: MIC against C. albicans (NCCLS broth dilution); format: cell-based; conditions: for MIC: Candida albicans, read-out: Minimum inhibitory concentration, C. albicans
# Text: as §1, §2, §3
# Cryptococcus neoformans = assay: MIC against C. neoformans (NCCLS broth dilution); format: cell-based; conditions: for MIC: Cryptococcus neoformans, read-out: Minimum inhibitory concentration, C. neoformans
# Text: as §1, §2, §3
# Aspergillus fumigatus = assay: MIC against A. fumigatus (NCCLS broth dilution); format: cell-based; conditions: for MIC: Aspergillus fumigatus, read-out: Minimum inhibitory concentration, A. fumigatus
# Text: as §1, §2, §3
# Trichophyton rubrum = assay: MIC against T. rubrum (NCCLS broth dilution); format: cell-based; conditions: for MIC: Trichophyton rubrum, read-out: Minimum inhibitory concentration, T. rubrum
# Text: as §1, §2, §3
# [2] = Table 1, over 90% reduction of growth, 24-168 h at 35° C.
molecule,measurement,setting,value
"1,3-Dihydro-1-hydroxy-2,1-naphtho[2,1-d]oxaborole [19j]","Minimum inhibitory concentration, T. mentagrophytes","[1]; Table 3, 1-hydroxy series (19)",2 µg/mL
same,"Minimum inhibitory concentration, C. albicans","Candida albicans; Table 3, 1-hydroxy series (19)",32 µg/mL
same,"Minimum inhibitory concentration, C. neoformans","Cryptococcus neoformans; Table 3, 1-hydroxy series (19)",32 µg/mL
same,"Minimum inhibitory concentration, A. fumigatus","Aspergillus fumigatus; Table 3, 1-hydroxy series (19)",32 µg/mL
same,"Minimum inhibitory concentration, T. rubrum","Trichophyton rubrum; Table 3, 1-hydroxy series (19)",4 µg/mL
"1,3-Dihydro-1-hydroxy-5-trifluoromethoxy-benzoxaborole [19i]","Minimum inhibitory concentration, T. mentagrophytes","[1]; Table 3, 1-hydroxy series (19)",64 µg/mL
same,"Minimum inhibitory concentration, C. albicans","Candida albicans; Table 3, 1-hydroxy series (19)",>64 µg/mL
same,"Minimum inhibitory concentration, C. neoformans","Cryptococcus neoformans; Table 3, 1-hydroxy series (19)",>64 µg/mL
same,"Minimum inhibitory concentration, A. fumigatus","Aspergillus fumigatus; Table 3, 1-hydroxy series (19)",>64 µg/mL
same,"Minimum inhibitory concentration, T. rubrum","Trichophyton rubrum; Table 3, 1-hydroxy series (19)",64 µg/mL
"Clc1cccc(B2OCc3ccccc32)c1 [9c, 1-(3-Chlorophenyl)-1,3-dihydro-2,1-benzoxaborole]",MIC,"[1]; Table 2, 1-phenyl series (9)",8 µg/mL
same,MIC,"Candida albicans; Table 2, 1-phenyl series (9)",8 µg/mL
same,MIC,"Cryptococcus neoformans; Table 2, 1-phenyl series (9)",4 µg/mL
same,MIC,"Aspergillus fumigatus; Table 2, 1-phenyl series (9)",8 µg/mL
same,MIC,"Trichophyton rubrum; Table 2, 1-phenyl series (9)",16 µg/mL
"Fc1cccc(B2OCc3ccccc32)c1 [9d, 1,3-Dihydro-1-(3-fluorophenyl)-2,1-benzoxaborole]",MIC,"[1]; Table 2, 1-phenyl series (9)",16 µg/mL
same,MIC,"Candida albicans; Table 2, 1-phenyl series (9)",4 µg/mL
same,MIC,"Cryptococcus neoformans; Table 2, 1-phenyl series (9)",4 µg/mL
same,MIC,"Aspergillus fumigatus; Table 2, 1-phenyl series (9)",8 µg/mL
same,MIC,"Trichophyton rubrum; Table 2, 1-phenyl series (9)",8 µg/mL
"Fc1ccc(B2OCc3ccccc32)cc1 [9e, 1,3-Dihydro-1-(4-fluorophenyl)-2,1-benzoxaborole]",MIC,"[1]; Table 2, 1-phenyl series (9)",4 µg/mL
same,MIC,"Candida albicans; Table 2, 1-phenyl series (9)",4 µg/mL
same,MIC,"Cryptococcus neoformans; Table 2, 1-phenyl series (9)",2 µg/mL
same,melting point,,53 to 55 °C
same,MIC,"Aspergillus fumigatus; Table 2, 1-phenyl series (9)",2 µg/mL
same,MIC,"Trichophyton rubrum; Table 2, 1-phenyl series (9)",8 µg/mL
"Fc1ccc2c(c1)COB2c1cccc(Cl)c1 [9f, 1-(3-Chlorophenyl)-1,3-dihydro-5-fluoro-2,1-benzoxaborole]",MIC,"[1]; Table 2, 1-phenyl series (9)",8 µg/mL
same,MIC,"Candida albicans; Table 2, 1-phenyl series (9)",0.25 µg/mL
same,MIC,"Cryptococcus neoformans; Table 2, 1-phenyl series (9)",0.5 µg/mL
same,melting point,,112 to 114 °C
same,MIC,"Aspergillus fumigatus; Table 2, 1-phenyl series (9)",2 µg/mL
same,MIC,"Trichophyton rubrum; Table 2, 1-phenyl series (9)",4 µg/mL
"Fc1cccc(B2OCc3cc(F)ccc32)c1 [9g, 1,3-Dihydro-5-fluoro-1-(3-fluorophenyl)-2,1-benzoxaborole]",MIC,"[1]; Table 2, 1-phenyl series (9)",2 µg/mL
same,MIC,"Candida albicans; Table 2, 1-phenyl series (9)",0.5 µg/mL
same,MIC,"Cryptococcus neoformans; Table 2, 1-phenyl series (9)",1 µg/mL
same,melting point,,80 to 82 °C
same,MIC,"Aspergillus fumigatus; Table 2, 1-phenyl series (9)",1 µg/mL
same,MIC,"Trichophyton rubrum; Table 2, 1-phenyl series (9)",1 µg/mL
"Fc1ccc(B2OCc3cc(F)ccc32)cc1 [9h, 1,3-Dihydro-5-fluoro-1-(4-fluorophenyl)-2,1-benzoxaborole]",MIC,"[1]; Table 2, 1-phenyl series (9)",4 µg/mL
same,MIC,"Candida albicans; Table 2, 1-phenyl series (9)",1 µg/mL
same,MIC,"Cryptococcus neoformans; Table 2, 1-phenyl series (9)",1 µg/mL
same,melting point,,75 to 77 °C
same,MIC,"Aspergillus fumigatus; Table 2, 1-phenyl series (9)",2 µg/mL
same,MIC,"Trichophyton rubrum; Table 2, 1-phenyl series (9)",4 µg/mL
"Cc1cccc(B2OCc3cc(F)ccc32)c1 [9i, 1,3-Dihydro-5-fluoro-1-(3-methylphenyl)-2,1-benzoxaborole]",MIC,"[1]; Table 2, 1-phenyl series (9)",4 µg/mL
same,MIC,"Candida albicans; Table 2, 1-phenyl series (9)",1 µg/mL
same,MIC,"Cryptococcus neoformans; Table 2, 1-phenyl series (9)",0.5 µg/mL
same,melting point,,48 to 49 °C
same,MIC,"Aspergillus fumigatus; Table 2, 1-phenyl series (9)",0.5 µg/mL
same,MIC,"Trichophyton rubrum; Table 2, 1-phenyl series (9)",2 µg/mL
"OB1OCc2ccccc21 [19a, 1,3-Dihydro-1-hydroxy-2,1-benzoxaborole]",MIC,[1],4 µg/mL
same,MIC,Candida albicans,2 µg/mL
same,MIC,Cryptococcus neoformans,1 µg/mL
same,MIC,Aspergillus fumigatus,2 µg/mL
same,MIC,Trichophyton rubrum,8 µg/mL
"OB1OCc2cc(F)ccc21 [19b, 1,3-Dihydro-5-fluoro-1-hydroxy-2,1-benzoxaborole]","Minimum inhibitory concentration, T. mentagrophytes","[1]; Table 3, 1-hydroxy series (19)",1 µg/mL
same,MIC,[1]; [2],1 µg/mL
same,MIC,Candida albicans; [2],0.5 µg/mL
same,"Minimum inhibitory concentration, C. albicans","Candida albicans; Table 3, 1-hydroxy series (19)",0.5 µg/mL
same,fold increase in activity against C. neoformans,"Cryptococcus neoformans; 19a relative to 9a, 19b relative to 9b",8 fold
same,MIC,Cryptococcus neoformans; [2],0.25 µg/mL
same,"Minimum inhibitory concentration, C. neoformans","Cryptococcus neoformans; Table 3, 1-hydroxy series (19)",0.25 µg/mL
same,MIC,Aspergillus fumigatus; [2],0.25 µg/mL
same,"Minimum inhibitory concentration, A. fumigatus","Aspergillus fumigatus; Table 3, 1-hydroxy series (19)",0.25 µg/mL
same,"Minimum inhibitory concentration, T. rubrum","Trichophyton rubrum; Table 3, 1-hydroxy series (19)",1 µg/mL
same,MIC,Trichophyton rubrum; [2],1 µg/mL
"OB1OCc2cc(Cl)ccc21 [19d, 5-Chloro-1,3-dihydro-1-hydroxy-2,1-benzoxaborole]",MIC,"[1]; Table 3, 1-hydroxy series (19)",2 µg/mL
same,MIC,"Candida albicans; Table 3, 1-hydroxy series (19)",1 µg/mL
same,MIC,"Cryptococcus neoformans; Table 3, 1-hydroxy series (19)",2 µg/mL
same,MIC,"Aspergillus fumigatus; Table 3, 1-hydroxy series (19)",1 µg/mL
same,MIC,"Trichophyton rubrum; Table 3, 1-hydroxy series (19)",1 µg/mL
"Cc1ccc2c(c1)COB2O [19e, 1,3-Dihydro-1-hydroxy-5-methyl-2,1-benzoxaborole]",MIC,"[1]; Table 3, 1-hydroxy series (19)",4 µg/mL
same,MIC,"Candida albicans; Table 3, 1-hydroxy series (19)",2 µg/mL
same,MIC,"Cryptococcus neoformans; Table 3, 1-hydroxy series (19)",8 µg/mL
same,MIC,"Aspergillus fumigatus; Table 3, 1-hydroxy series (19)",2 µg/mL
same,MIC,"Trichophyton rubrum; Table 3, 1-hydroxy series (19)",8 µg/mL
"N#Cc1ccc2c(c1)COB2O [19f, 5-Cyano-1,3-dihydro-1-hydroxy-2,1-benzoxaborolane]","Minimum inhibitory concentration, T. mentagrophytes","[1]; Table 3, 1-hydroxy series (19)",8 µg/mL
same,"Minimum inhibitory concentration, C. albicans","Candida albicans; Table 3, 1-hydroxy series (19)",16 µg/mL
same,"Minimum inhibitory concentration, C. neoformans","Cryptococcus neoformans; Table 3, 1-hydroxy series (19)",16 µg/mL
same,"Minimum inhibitory concentration, A. fumigatus","Aspergillus fumigatus; Table 3, 1-hydroxy series (19)",8 µg/mL
same,"Minimum inhibitory concentration, T. rubrum","Trichophyton rubrum; Table 3, 1-hydroxy series (19)",8 µg/mL
"OCc1ccc2c(c1)COB2O [19h, 1,3-Dihydro-1-hydroxy-5-hydroxymethyl-2,1-benzoxaborole]",MIC,"[1]; Table 3, 1-hydroxy series (19)",32 µg/mL
same,MIC,"Candida albicans; Table 3, 1-hydroxy series (19)",> 64 µg/mL
same,MIC,"Cryptococcus neoformans; Table 3, 1-hydroxy series (19)",> 64 µg/mL
same,MIC,"Aspergillus fumigatus; Table 3, 1-hydroxy series (19)",> 64 µg/mL
same,MIC,"Trichophyton rubrum; Table 3, 1-hydroxy series (19)",64 µg/mL
"OB1OCc2cc(F)c(F)cc21 [19k, 5,6-Difluoro-1,3-dihydro-1-hydroxy-2,1-benzoxaborolane]","Minimum inhibitory concentration, T. mentagrophytes","[1]; Table 3, 1-hydroxy series (19)",4 µg/mL
same,"Minimum inhibitory concentration, C. albicans","Candida albicans; Table 3, 1-hydroxy series (19)",4 µg/mL
same,"Minimum inhibitory concentration, C. neoformans","Cryptococcus neoformans; Table 3, 1-hydroxy series (19)",2 µg/mL
same,"Minimum inhibitory concentration, A. fumigatus","Aspergillus fumigatus; Table 3, 1-hydroxy series (19)",2 µg/mL
same,"Minimum inhibitory concentration, T. rubrum","Trichophyton rubrum; Table 3, 1-hydroxy series (19)",4 µg/mL
"OB1OCc2c(F)cccc21 [19l, 1,3-Dihydro-4-fluoro-1-hydroxy-2,1-benzoxaborole]",MIC,"[1]; Table 3, 1-hydroxy series (19)",16 µg/mL
same,MIC,"Candida albicans; Table 3, 1-hydroxy series (19)",64 µg/mL
same,MIC,"Cryptococcus neoformans; Table 3, 1-hydroxy series (19)",32 µg/mL
same,MIC,"Aspergillus fumigatus; Table 3, 1-hydroxy series (19)",32 µg/mL
same,MIC,"Trichophyton rubrum; Table 3, 1-hydroxy series (19)",16 µg/mL
"OB1OCc2ccc(F)cc21 [19m, 1,3-Dihydro-6-fluoro-1-hydroxy-2,1-benzoxaborole]",MIC,"[1]; Table 3, 1-hydroxy series (19)",32 µg/mL
same,MIC,"Candida albicans; Table 3, 1-hydroxy series (19)",16 µg/mL
same,MIC,"Cryptococcus neoformans; Table 3, 1-hydroxy series (19)",32 µg/mL
same,MIC,"Aspergillus fumigatus; Table 3, 1-hydroxy series (19)",8 µg/mL
same,MIC,"Trichophyton rubrum; Table 3, 1-hydroxy series (19)",16 µg/mL
"OB1OCc2cccc(F)c21 [19n, 1,3-Dihydro-7-fluoro-1-hydroxy-2,1-benzoxaborolane]",MIC,"[1]; Table 3, 1-hydroxy series (19)",16 µg/mL
same,MIC,"Candida albicans; Table 3, 1-hydroxy series (19)",32 µg/mL
same,MIC,"Cryptococcus neoformans; Table 3, 1-hydroxy series (19)",32 µg/mL
same,MIC,"Aspergillus fumigatus; Table 3, 1-hydroxy series (19)",4 µg/mL
same,MIC,"Trichophyton rubrum; Table 3, 1-hydroxy series (19)",16 µg/mL
"C=CB1OCc2cc(F)ccc21 [compound 11, 1,3-Dihydro-5-fluoro-1-vinyl-2,1-benzoxaborole]",MIC,[1]; [2],2 µg/mL
same,MIC,Candida albicans; [2],1 µg/mL
same,MIC,Cryptococcus neoformans; [2],4 µg/mL
same,MIC,Aspergillus fumigatus; [2],2 µg/mL
same,MIC,Trichophyton rubrum; [2],4 µg/mL
"Fc1ccc2c(c1)COB2c1ccoc1 [compound 12, 1,3-Dihydro-5-fluoro-1-(furan-3-yl)-2,1-benzoxaborole]",MIC,[1]; [2],4 µg/mL
same,MIC,Candida albicans; [2],4 µg/mL
same,MIC,Cryptococcus neoformans; [2],4 µg/mL
same,MIC,Aspergillus fumigatus; [2],4 µg/mL
same,MIC,Trichophyton rubrum; [2],4 µg/mL

# Source: US8106031B2, “Hydrolytically-resistant boron-containing therapeutics and methods of use” (Anacor Pharmaceuticals, Inc., priority 2006, dated 2012)
